From patent US11213579B2, “Vaccines with enhanced immunogenicity, low allergenicity and reactogenicity” (priority 2018, dated 2022)

What was measured:
[1] = tested on: P. aeruginosa 6616; experiment: Photodynamic inactivation of Pseudomonas aeruginosa, re-seeding on MHA to control inactivation; type: cell-based; settings: initial dose 10 lg CFU/ml, 5 min, 500 μV/ml
[2] = tested on: Newcastle disease virus (strain 2M); type: cell-based
[3] = photosensitizer 1 nM/L, 320 nm for flavins, 560 nm for phenothiazines and porphyrins
[4] = photosensitizer 5 nM/L, 320 nm for flavins, 560 nm for phenothiazines and porphyrins
[5] = photosensitizer 10 nM/L, 320 nm for flavins, 560 nm for phenothiazines and porphyrins
[6] = photosensitizer 20 nM/L, 320 nm for flavins, 560 nm for phenothiazines and porphyrins
[7] = photosensitizer 40 nM/L, 320 nm for flavins, 560 nm for phenothiazines and porphyrins
[8] = photosensitizer 80 nM/L, 320 nm for flavins, 560 nm for phenothiazines and porphyrins
[9] = photosensitizer 160 nM/L, 320 nm for flavins, 560 nm for phenothiazines and porphyrins
[10] = photosensitizer 320 nM/L, 320 nm for flavins, 560 nm for phenothiazines and porphyrins
[11] = photosensitizer 640 nM/L, 320 nm for flavins, 560 nm for phenothiazines and porphyrins
[12] = wavelength 180 nm, photoinactivator 40 μM/L
[13] = wavelength 220 nm, photoinactivator 40 μM/L
[14] = wavelength 260 nm, photoinactivator 40 μM/L
[15] = wavelength 320 nm, photoinactivator 40 μM/L
[16] = wavelength 360 nm, photoinactivator 40 μM/L
[17] = wavelength 400 nm, photoinactivator 40 μM/L
[18] = wavelength 440 nm, photoinactivator 40 μM/L
[19] = wavelength 480 nm, photoinactivator 40 μM/L
[20] = wavelength 520 nm, photoinactivator 40 μM/L
[21] = wavelength 560 nm, photoinactivator 40 μM/L
[22] = wavelength 600 nm, photoinactivator 40 μM/L
[23] = wavelength 640 nm, photoinactivator 40 μM/L
[24] = wavelength 680 nm, photoinactivator 40 μM/L
[25] = wavelength 720 nm, photoinactivator 40 μM/L
[26] = photosensitizer 1280 nM/L, 320 nm for flavins, 560 nm for phenothiazines and porphyrins

| Molecule | lg CFU/ml after treatment [1, 3] [lg CFU/ml] | lg CFU/ml after treatment [1, 4] [lg CFU/ml] | lg CFU/ml after treatment [1, 5] [lg CFU/ml] | lg CFU/ml after treatment [1, 6] [lg CFU/ml] | lg CFU/ml after treatment [1, 7] [lg CFU/ml] | lg CFU/ml after treatment [1, 8] [lg CFU/ml] | lg CFU/ml after treatment [1, 9] [lg CFU/ml] | lg CFU/ml after treatment [1, 10] [lg CFU/ml] | lg CFU/ml after treatment [1, 11] [lg CFU/ml] | lg CFU/ml after treatment [1, 12] [lg CFU/ml] | lg CFU/ml after treatment [1, 13] [lg CFU/ml] | lg CFU/ml after treatment [1, 14] [lg CFU/ml] | lg CFU/ml after treatment [1, 15] [lg CFU/ml] | lg CFU/ml after treatment [1, 16] [lg CFU/ml] | lg CFU/ml after treatment [1, 17] [lg CFU/ml] | lg CFU/ml after treatment [1, 18] [lg CFU/ml] | lg CFU/ml after treatment [1, 19] [lg CFU/ml] | lg CFU/ml after treatment [1, 20] [lg CFU/ml] | lg CFU/ml after treatment [1, 21] [lg CFU/ml] | lg CFU/ml after treatment [1, 22] [lg CFU/ml] | also measured |
| --- | --- | --- | --- | --- | --- | --- | --- | --- | --- | --- | --- | --- | --- | --- | --- | --- | --- | --- | --- | --- | --- |
| Cc1cc2nc3c(=O)[nH]c(=O)nc-3n(C[C@H](O)[C@H](O)[C@H](O)COP(=O)(O)O)c2cc1C [Riboflavin mononucleotide] | 4 | 1 | 0 | 0 | 0 | 0 | 0 | 0 | 0 |  |  |  |  |  |  |  |  |  |  |  |  |
| Cc1cc2nc3c(=O)[nH]c(=O)nc-3n(C[C@H](O)[C@H](O)[C@H](O)CO)c2cc1C [Riboflavin] | 6 | 2 | 1 | 0 | 0 | 0 | 0 | 0 | 0 | 0 | 2 | 1 | 0 | 0 | 0 | 0 | 0 | 9 | 8 | 9 | lg CFU/ml after treatment [1, 23]: 9 lg CFU/ml; lg CFU/ml after treatment [1, 24]: 7 lg CFU/ml; lg CFU/ml after treatment [1, 25]: 6 lg CFU/ml; spectral region of highest inactivation efficiency [2]: 180-390 nm |
| Cc1cc2nc3c(=O)[nH]c(=O)nc-3n(C[C@H](O)[C@H](O)[C@H](O)COP(=O)(O)OP(=O)(O)OC[C@H]3O[C@@H](n4cnc5c(N)ncnc54)[C@H](O)[C@@H]3O)c2cc1C [Riboflavin dinucleotide] | 3 | 0 | 0 | 0 | 0 | 0 | 0 | 0 | 0 |  |  |  |  |  |  |  |  |  |  |  |  |
| CN(C)c1ccc2nc3ccc(=[N+](C)C)cc-3sc2c1 [Methylene blue] | 6 | 2 | 1 | 1 | 0 | 0 | 0 | 0 | 0 | 10 | 9 | 8 | 9 | 9 | 9 | 9 | 7 | 4 | 3 | 3 | lg CFU/ml after treatment [1, 26]: 2 lg CFU/ml; lg CFU/ml after treatment [1, 23]: 0 lg CFU/ml; lg CFU/ml after treatment [1, 24]: 0 lg CFU/ml; lg CFU/ml after treatment [1, 25]: 0 lg CFU/ml |
| Cc1cc(=[N+](C)C)cc2sc3cc(N(C)C)cc(C)c3nc1-2.[Cl-] [Dimethylmethylene blue] | 2 | 1 | 1 | 1 | 0 | 0 | 0 | 0 | 0 |  |  |  |  |  |  |  |  |  |  |  | lg CFU/ml after treatment [1, 26]: 1 lg CFU/ml |
| C=Cc1c(C)c2cc3nc(c4c5[n-]c(cc6nc(cc1[n-]2)C(C)=C6CC)c(C)c5C(=O)[C@@H]4C(=O)OC)[C@@H](CCC(=O)OC/C=C(\C)CCC[C@H](C)CCC[C@H](C)CCCC(C)C)[C@@H]3C.[Mg+2] [Chlorophyll alpha (on TWEEN-80), Chlorophyll alpha] | 2 | 2 | 1 | 1 | 0 | 0 | 0 | 0 | 0 | 9 | 9 | 10 | 10 | 10 | 9 | 9 | 6 | 7 | 0 | 0 | lg CFU/ml after treatment [1, 23]: 4 lg CFU/ml; lg CFU/ml after treatment [1, 24]: 6 lg CFU/ml; lg CFU/ml after treatment [1, 25]: 9 lg CFU/ml |
| Cyanocobalamin | 6 | 5 | 4 | 4 | 4 | 2 | 3 | 2 | 0 |  |  |  |  |  |  |  |  |  |  |  |  |
| C=CC1=C(C)c2cc3[n-]c(cc4[n-]c(cc5nc(cc1n2)C(C)=C5C=C)c(C)c4CCC(=O)O)c(CCC(=O)O)c3C.[Fe+2] [Heme] | 3 | 2 | 2 | 1 | 0 | 0 | 0 | 0 | 0 |  |  |  |  |  |  |  |  |  |  |  |  |
| Cc1cc2nc3ccc(N(C)C)cc3[s+]c2cc1N.[Cl-] [Toluidine Blue] | 6 | 2 | 1 | 1 | 0 | 0 | 0 | 0 | 0 |  |  |  |  |  |  |  |  |  |  |  | lg CFU/ml after treatment [1, 26]: 2 lg CFU/ml |
